# Article PMC6271241, “Several Human Cyclin-Dependent Kinase Inhibitors, Structurally Related to Roscovitine, As New Anti-Malarial Agents” (Molecules, 2014)
# Read-outs that look alike come from different tables or passages of the source.
# Columns and labels:
# recombinant PfPK5 = test system: recombinant PfPK5; design: method as in PMID 10722743, PMID 11434907; conditions: cited from earlier work
# CDK1/cyclin B = CDK1/cyclin B kinase assay ([γ-33P] ATP, histone H1); format: biochemical, starfish; conditions: Table A1; read-out: IC50 on HsCDKs HsCDK1
# Pf7G8 = assay: [3H]hypoxanthine incorporation growth assay, Pf7G8; format: cell-based, Plasmodium falciparum; conditions: Plasmodium falciparum
# Method: (§1) A selection of 15 molecules 4b–c, 10–13 representing the different 2,6,9-trisubstituted purine series, including newly synthesized products was screened as anti-malarial agents on two different P. falciparum strains, Pf3D7, a standard drug-sensitive African stain, and Pf7G8, a brazilian chloroquino-resistant strain (Figure 3). The compound activity was evaluated during the parasitic erythocytic cycle, by the means of a [^3H] hypoxanthine incorporation assay. It is directly correlated to parasite viability, as described in the experimental section.
# (§2) At first, the activity of the fifteen compounds was screened at three different concentrations (10, 50 and 100 µM) on Pf3D7. Chloroquine which is not a kinase inhibitor, but which is the antimalarial reference drug was used as the positive control. […] Chloroquine was again used as a positive control.
# (§3) Compounds were tested against synchronous ring-stage parasites of Pf3D7 and Pf7G8 strains. Drugs testing were carried out in 96-well microtiter plates. The chloroquine (CQ) diphosphate was purchased from Sigma (Lyon, France). […] For each assay, each drug dilution was analyzed in triplicate.
# (§4) For the in vitro isotopic microtest, 200 µL of the suspension of synchronous parasitized red blood cells with >90% of the parasites at the ring stage (final parasitaemia, 0.3%; final haematocrit, 4%) per well were plated in 96-well plates that contained serial CQ or compounds concentrations. […] The plates were incubated at 37 °C, in an atmosphere of 5% O2, 5% CO2, and 90% N2 for 48 h. Immediately after incubation, plates were frozen and then thawed to lyse the erythrocytes. Cultures were harvested onto glass fiber filters and washed using a cell harvester (FilterMAT; Skatron Instruments, Dalsletta, Norway). The dried fiber filter papers were mixed with 2 mL of scintillation fluid (OptiScint; Perkin-Elmer, Waltham, UK). […] The initial value and the asymptotic result for high concentrations were fixed to 0% and 100%, respectively, available on the web.
# Pfmrk = test system: Pfmrk; design: method as in PMID 10722743, PMID 11434907; conditions: recombinant; cited from earlier work
# DYRK1A = test system: DYRK1A; design: method as in PMID 17850214; conditions: at 0.1 µM; cited from earlier work
# Pf3D7 = assay: [3H]hypoxanthine incorporation growth assay, Pf3D7; format: cell-based, Plasmodium falciparum; conditions: Plasmodium falciparum
# Method: as §1, §2, §3, §4
compound,measurement,setting,value
"CC(C)[C@H](CO)Nc1nc(Nc2cccc(Cl)c2)c2ncn(C(C)C)c2n1 [Compound 2a, purvalanol A, reference compound]",IC50,recombinant PfPK5,8 µM
same,IC50,CDK1/cyclin B,0.004 µM
same,IC50,"Pf7G8; 48 h, read-out: Growth IC50 Pf7G8",8.12 µM
same,IC50,Pf7G8; read-out: IC50 on P. falciparum Strains Pf7G8,8.12 µM
same,IC50,Pfmrk,26 µM
same,remaining DYRK1A kinase activity,DYRK1A,88%
same,IC50,"Pf3D7; 48 h, read-out: Growth IC50 Pf3D7",4.58 µM
same,IC50,Pf3D7; read-out: IC50 on P. falciparum Strains Pf3D7,4.58 µM
